41 molecules from patent US10023562B2, “Heteroaryl substituted pyridyl compounds useful as kinase modulators” (BRISTOL-MYERS SQUIBB COMPANY, priority 2012, dated 2018) can be followed below.

One assay concerns TLR2 induced IL-6 in peripheral blood mononuclear cells (PBMCs). The assay can be described thus: PBMC TLR2 Induced IL-6 Assay. The following applies: Homo sapiens, PBMC, 5 h, 10 μg/ml lipoteichoic acid for 5 hours, IL-6 by ELISA, values marked * are EC50, read-out: Cell EC50 (values marked *). The assay is classed as cell-based. How it is done: PBMC TLR2 Induced IL-6 Assay Peripheral blood mononuclear cells (PBMCs) were isolated from human blood containing the anti-coagulant EDTA (2.5 mM) by centrifugation over a FICOLL® gradient. […] At the end of the culture, plates were centrifuged at 1800 rpm for 10 minutes to pellet the cells. Supernatants were harvested and analyzed for IL-6 levels by ELISA (BD Biosciences, San Jose, Calif.).
In general terms: An ELISA detects its analyte on a solid surface through an enzyme-linked reagent.
The EC50 is the concentration at which the effect is half-maximal. In the case of `CCNC(=O)[C@H]1CC[C@H](NC(=O)c2cnc(Nc3ncc(C#N)cc3F)cc2NC(C)C)CC1` [Example 30, 6-((5-cyano-3-fluoropyridin-2-yl)amino)-N-((1R,4R)-4-(ethylcarbamoyl)cyclohexyl)-4-(isopropylamino)nicotinamide], the EC50 worked out at 163 nM.
With `CC(C)Nc1cc(Nc2ccc(C#N)cn2)ncc1C(=O)NC1CCC(O)(c2ccnn2C)CC1` (centres unmarked) [Example 31, 6-((5-cyanopyridin-2-yl)amino)-N-((1s,4s)-4-hydroxy-4-(1-methyl-1H-pyrazol-5-yl)cyclohexyl)-4-(isopropylamino)nicotinamide], the EC50 was determined as 170 nM.
Same read-out and setting: then `CS[C@H]1CC[C@H](NC(=O)c2cnc(Nc3ncc(C#N)cc3F)cc2NC(C)C)CC1` [Example 32, 6-((5-cyano-3-fluoropyridin-2-yl)amino)-4-(isopropylamino)-N-((1R,4R)-4-(methylthio)cyclohexyl)nicotinamide], with 199 nM.
The same measure, in the same setting: to `CC(C)Nc1cc(Nc2ncc(C#N)cc2F)ncc1C(=O)N[C@H]1CC[C@H](S(C)(=O)=O)CC1` [Example 33, 6-((5-cyano-3-fluoropyridin-2-yl)amino)-4-(isopropylamino)-N-((1R,4R)-4-(methylsulfonyl)cyclohexyl)nicotinamide] belongs 149 nM; to `CC(=O)Nc1nc(Nc2cc(NC(C)C)c(C(=O)NC[C@@H](F)C(C)(C)O)cn2)ncc1C#N` [Example 34], 122 nM; to `COC[C@H](F)CNC(=O)c1cnc(Nc2ncc(C#N)cc2F)cc1NC(C)C` [Example 35, (R)-6-((5-cyano-3-fluoropyridin-2-yl)amino)-N-(2-fluoro-3-methoxypropyl)-4-(isopropylamino)nicotinamide], 350 nM.
The same measure, in the same setting: to `COC(C)(C)[C@H](F)CNC(=O)c1cnc(Nc2ncc(C#N)cc2F)cc1NC(C)C` [Example 36] belongs 49 nM; to `[2H]C([2H])([2H])OC(C)(C)[C@H](F)CNC(=O)c1cnc(Nc2ncc(C#N)cc2F)cc1NC(C)C` [Example 37], 95 nM.
With `CC(C)(O)[C@H](F)CNC(=O)c1cnc(Nc2ncc(C(N)=O)cc2Cl)cc1NC1CCC(F)C1` (some centres unmarked) [Example 38], the EC50 is 453 nM.
Same read-out and setting: then `C[C@@H](CF)Nc1cc(Nc2ncc(C#N)cc2Cl)ncc1C(=O)NC[C@@H](F)C(C)(C)O` [Example 39, 6-((3-chloro-5-cyanopyridin-2-yl)amino)-N—((R)-2-fluoro-3-hydroxy-3-methylbutyl)-4-(((S)-1-fluoropropan-2-yl)amino)nicotinamide], with 100 nM.
The same measure, in the same setting: to `CC(C)Nc1cc(Nc2ncc(C#N)c(NC(C)C)n2)ncc1C(=O)NC[C@@H](F)C(C)(C)O` [Example 40] belongs 161 nM.
Still for that read-out and setting: to `CC(C)Nc1cc(Nc2nc(OC3CCNCC3)ncc2Cl)ncc1C(=O)NC[C@@H](F)C(C)(C)O` [Example 41] belongs 160 nM.
In the case of `CC(C)(O)[C@H](F)CNC(=O)c1cnc(Nc2nc(OC3CCNCC3)ncc2Cl)cc1NC1CC1` [Example 42], the EC50 amounted to 329 nM.
In the case of `CC(C)(O)C(F)(F)CNC(=O)c1cnc(Nc2ncc(C#N)cc2Cl)cc1NC1CC1` [Example 43, 6-((3-chloro-5-cyanopyridin-2-yl)amino)-4-(cyclopropylamino)-N-(2,2-difluoro-3-hydroxy-3-methylbutyl)nicotinamide], the EC50 came to 169 nM.
Same read-out and setting: then `CC(C)(F)CNc1cc(Nc2ncc(C#N)cc2Cl)ncc1C(=O)NC[C@@H](F)C(C)(C)O` [Example 46], with 206 nM.
On to `CC(C)Nc1cc(Nc2ncncc2F)ncc1C(=O)NC[C@@H](F)C(C)(C)O` [Example 53], for which the EC50 came out at 517 nM.

The same assay, now with this note: Homo sapiens, PBMC, 5 h, 10 μg/ml lipoteichoic acid for 5 hours, IL-6 by ELISA, values without asterisk, read-out: Cell IC50.
The IC50 is the point on the concentration scale where inhibition reaches its midpoint. With `CC(C)(O)[C@H](F)CNC(=O)c1cnc(Nc2ncc(C#N)cc2Cl)cc1NC1CC1` [Example 14, 6-((3-chloro-5-cyano-2-pyridinyl)amino)-4-(cyclopropylamino)-N-((2R)-2-fluoro-3-hydroxy-3-methylbutyl)nicotinamide], the IC50 was 43 nM.
On the same count and under the same terms, then `CC(=O)N[C@H]1CC[C@H](NC(=O)c2cnc(Nc3ncc(C#N)cc3Cl)cc2NC(C)C)CC1` [Example 15, N-((1r,4r)-4-acetamidocyclohexyl)-6-((3-chloro-5-cyanopyridin-2-yl)amino)-4-(isopropylamino)nicotinamide], with 245 nM; and `CNC(=O)[C@H]1CC[C@H](NC(=O)c2cnc(Nc3ncc(C#N)cc3Cl)cc2NC(C)C)CC1` [Example 16, 6-((3-chloro-5-cyanopyridin-2-yl)amino)-4-(isopropylamino)-N—((1r,4r)-4-(methylcarbamoyl)cyclohexyl)nicotinamide], with 212 nM.
Still for that read-out and setting: then `CC(C)Nc1cc(Nc2ncc(C#N)cc2F)ncc1C(=O)NC[C@@H](F)C(C)(C)O` [Example 17, 6-((5-cyano-3-fluoro-2-pyridinyl)amino)-N-((2R)-2-fluoro-3-hydroxy-3-methylbutyl)-4-(isopropylamino)nicotinamide], with 382 nM; and `CNC(=O)[C@H]1CC[C@H](NC(=O)c2cnc(Nc3ncc(C#N)cc3F)cc2NC(C)C)CC1` [Example 18, 6-((5-cyano-3-fluoropyridin-2-yl)amino)-4-(isopropylamino)-N-((1r,4r)-4-(methylcarbamoyl)cyclohexyl)nicotinamide], with 137 nM.
Consider `CC(=O)N[C@H]1CC[C@H](NC(=O)c2cnc(Nc3ncc(C#N)cc3F)cc2NC(C)C)CC1` [Example 19, N-(trans-4-acetamidocyclohexyl)-6-((5-cyano-3-fluoro-2-pyridinyl)amino)-4-(isopropylamino)nicotinamide], for which the IC50 worked out at 378 nM.
Same read-out and setting: to `CC(C)Nc1cc(Nc2ccncn2)ncc1C(=O)NC[C@@H](F)C(C)(C)O` [Example 20, N-((2R)-2-fluoro-3-hydroxy-3-methylbutyl)-4-(isopropylamino)-6-(4-pyrimidinylamino)nicotinamide] belongs 647 nM.
The same measure, in the same setting: to `CC(C)(O)[C@H](F)CNC(=O)c1cnc(Nc2ccncn2)cc1NC1CC1` [Example 21, 4-(cyclopropylamino)-N-((2R)-2-fluoro-3-hydroxy-3-methylbutyl)-6-(4-pyrimidinylamino)nicotinamide] belongs 331 nM.
In the case of `CC(C)Nc1cc(Nc2ncc(C#N)cn2)ncc1C(=O)NC[C@@H](F)C(C)(C)O` [Example 22, 6-((5-cyano-2-pyrimidinyl)amino)-N-((2R)-2-fluoro-3-hydroxy-3-methylbutyl)-4-(isopropylamino)nicotinamide], the IC50 came out at 342 nM.
For `CC(C)(O)[C@H](F)CNC(=O)c1cnc(Nc2nc(-c3cccnc3)cs2)cc1NC1CC1` [Example 23, 4-(cyclopropylamino)-N-((2R)-2-fluoro-3-hydroxy-3-methylbutyl)-6-((4-(3-pyridinyl)-1,3-thiazol-2-yl)amino)nicotinamide], the IC50 was 32 nM.
As for `CC(C)Nc1cc(Nc2ccnc(NC3CC3)n2)ncc1C(=O)NC[C@@H](F)C(C)(C)O` [Example 24, 6-((2-(cyclopropylamino)-4-pyrimidinyl)amino)-N-((2R)-2-fluoro-3-hydroxy-3-methylbutyl)-4-(isopropylamino)nicotinamide], the IC50 is 312 nM.
On the same count and under the same terms, then `CC(C)Nc1cc(Nc2ccnc(NC3CCCOC3)n2)ncc1C(=O)NC[C@@H](F)C(C)(C)O` (stereo partly drawn) [Example 25, N-((2R)-2-fluoro-3-hydroxy-3-methylbutyl)-4-(isopropylamino)-6-((2-(tetrahydro-2H-pyran-3-ylamino)-4-pyrimidinyl)amino)nicotinamide], with 372 nM; and `CC(C)Nc1cc(Nc2ccnc(N3CCC(F)C3)n2)ncc1C(=O)NC[C@@H](F)C(C)(C)O` (stereo partly drawn) [Example 26, N-((2R)-2-fluoro-3-hydroxy-3-methylbutyl)-6-((2-(3-fluoro-1-pyrrolidinyl)-4-pyrimidinyl)amino)-4-(isopropylamino)nicotinamide], with 139 nM.
For `CC(=O)N[C@H](C)CCNC(=O)c1cnc(Nc2ncc(C#N)cc2Cl)cc1NC(C)C` [Example 28, (R)—N-(3-acetamidobutyl)-6-((3-chloro-5-cyanopyridin-2-yl)amino)-4-(isopropylamino)nicotinamide], the IC50 was 270 nM.
On the same count and under the same terms, then `CC(C)NC(=O)N[C@H](C)CCNC(=O)c1cnc(Nc2ncc(C#N)cc2F)cc1NC(C)C` [Example 29, (R)-6-((5-cyano-3-fluoropyridin-2-yl)amino)-4-(isopropylamino)-N-(3-(3-isopropylureido)butyl)nicotinamide], with 111 nM; and `CC(C)Nc1cc(Nc2ccc(=O)[nH]n2)ncc1C(=O)NC[C@@H](F)C(C)(C)O` [Example 45], with 712 nM.
For the molecule `CC(C)(O)[C@H](F)CNC(=O)c1cnc(Nc2ncc(C#N)cc2F)cc1NC1CC1` [Example 47], the IC50 is 69 nM.
The same measure, in the same setting: to `CC(C)(O)CNc1cc(Nc2ncc(C#N)cc2Cl)ncc1C(=O)NC[C@@H](F)C(C)(C)O` [Example 48] belongs 369 nM; to `CC(C)(O)[C@H](F)CNC(=O)c1cnc(Nc2ncc(C#N)cc2F)cc1NC1CCOCC1` [Example 49], 164 nM.
On the same count and under the same terms, to `C[C@@H](CO)Nc1cc(Nc2ncc(C#N)cc2Cl)ncc1C(=O)NC[C@@H](F)C(C)(C)O` [Example 50] belongs 85 nM; to `CCNc1cc(Nc2ncc(C#N)cc2Cl)ncc1C(=O)NC[C@@H](F)C(C)(C)O` [Example 51], 99 nM; to `CC(C)Nc1cc(Nc2ncncc2Cl)ncc1C(=O)NC[C@@H](F)C(C)(C)O` [Example 52], 74 nM.
Still for that read-out and setting: then `CC(C)(O)[C@H](F)CNC(=O)c1cnc(Nc2ncc(C#N)cn2)cc1NC1CCC(F)C1` (some centres unmarked) [Example 56], with 41 nM; and `CCNc1cc(Nc2ncc(C#N)cn2)ncc1C(=O)NC[C@@H](F)C(C)(C)O` [Example 58], with 191 nM; and `CNC(=O)[C@H]1CC[C@H](NC(=O)c2cnc(Nc3ncc(C#N)cc3F)cc2NC2CC2)CC1` [Example 59], with 60 nM.
